Source: EP4691482A1, “LONG-ACTING CALCITONIN ANALOG” (Chengdu Aoda Biotechnology Co., Ltd., priority 2023, dated 2024)

Target: T1, calcitonin receptors (CTR) (Homo sapiens, UniProt P30988)
T1 construct: expressed in transfected cells; host or cells: cAMP Hunter HEK293-CT-R Gs cell line (HEK293, stably transfected)
T1 sequence (P30988 25-474): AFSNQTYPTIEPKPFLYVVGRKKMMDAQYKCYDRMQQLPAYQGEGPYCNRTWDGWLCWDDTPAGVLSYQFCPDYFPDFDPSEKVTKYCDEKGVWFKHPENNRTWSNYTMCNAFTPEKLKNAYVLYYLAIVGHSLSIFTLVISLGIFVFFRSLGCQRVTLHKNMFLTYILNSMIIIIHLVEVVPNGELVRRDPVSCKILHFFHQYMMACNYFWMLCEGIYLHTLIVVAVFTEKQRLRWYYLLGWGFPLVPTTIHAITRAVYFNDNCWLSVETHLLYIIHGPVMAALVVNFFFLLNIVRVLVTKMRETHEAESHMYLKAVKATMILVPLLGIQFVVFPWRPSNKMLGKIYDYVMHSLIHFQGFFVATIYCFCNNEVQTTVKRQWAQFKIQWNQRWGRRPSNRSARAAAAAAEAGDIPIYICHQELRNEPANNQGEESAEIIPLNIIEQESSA
Assay: cAMP determination (HTRF, cAMP Dynamic 2 Kit) in cAMP Hunter HEK293-CT-R Gs cell line
Type: cell-based
Conditions: HEK293 cell line stably expressing CT-R; intracellular cAMP, HTRF
Text: Upon activation by a ligand, Gas-coupled GPCRs can upregulate intracellular cAMP level, and cAMP, as a second messenger, can mediate a series of cellular responses. The cAMP Hunter HEK293-CT-R Gs cell line, which overexpresses Gas-coupled calcitonin receptors (CTR), was used. The binding of calcitonin (or an analog thereof) to the overexpressed CTR upregulates intracellular cAMP level. The amount of intracellular cAMP produced after activation by the calcitonin (or an analog thereof) was detected using a cAMP Dynamic 2 Kit to evaluate the biological activity of the calcitonin (or an analog thereof). HEK293 cell line stably expressing CT-R was used. Stably transfected cells were stimulated with various concentrations of agonists. The time-resolved fluorescence resonance energy signal from the cells after stimulation with different doses was measured using HTRF technology, from which the biological activity of the agonist was subsequently calculated.

Row | Structure (SMILES) | EC50
1 | CC(C)C[C@H](NC(=O)[C@H](CCCCN)NC(=O)CNC(=O)[C@H](CC(C)C)NC(=O)[C@@H](NC(=O)[C@@H]1CSSC[C@H](N)C(=O)N[C@@H](CO)C(=O)N[C@@H](CC(N)=O)C(=O)N[C@@H](CC(C)C)C(=O)N[C@@H](CO)C(=O)N[C@@H]([C@@H](C)O)C(=O)N1)C(C)C)C(=O)N[C@@H](CO)C(=O)N[C@@H](CCC(N)=O)C(=O)N[C@@H](CCC(=O)O)C(=O)N[C@@H](CC(C)C)C(=O)N[C@@H](Cc1c[nH]cn1)C(=O)N[C@@H](CCCCNC(=O)COCCOCCNC(=O)COCCOCCNC(=O)COCCOCCNC(=O)CC[C@H](NC(=O)CCCCCCCCCCCCCCCCCCC(=O)O)C(=O)O)C(=O)N[C@@H](CC(C)C)C(=O)N[C@@H](CCC(N)=O)C(=O)N[C@H](C(=O)N[C@@H](Cc1ccc(O)cc1)C(=O)N1CCC[C@H]1C(=O)N[C@@H](CCCNC(=N)N)C(=O)N[C@H](C(=O)N[C@@H](CC(N)=O)C(=O)N[C@H](C(=O)NCC(=O)N[C@@H](CO)C(=O)NCC(=O)N[C@H](C(=O)N1CCC[C@H]1C(N)=O)[C@@H](C)O)[C@@H](C)O)[C@@H](C)O)[C@@H](C)O [Compound 17, Cys-Ser-Asn-Leu-Ser-Thr-Cys-Val-Leu-Gly-Lys-Leu-Ser-Gln-Glu-Leu-His-Lys(AEEA-AEEA-AEEA-γGlu-eicosanedioic acid)-Leu-Gln-Thr-T yr-Pro-Arg-Thr-Asn-Thr-Gly-Ser-Gly-Thr-Pro-NH2] | 3.1 pM
2 | CC(C)C[C@H](NC(=O)[C@H](CCCCN)NC(=O)CNC(=O)[C@H](CC(C)C)NC(=O)[C@@H](NC(=O)[C@@H]1CSSC[C@H](N)C(=O)N[C@@H](CO)C(=O)N[C@@H](CC(N)=O)C(=O)N[C@@H](CC(C)C)C(=O)N[C@@H](CO)C(=O)N[C@@H]([C@@H](C)O)C(=O)N1)C(C)C)C(=O)N[C@@H](CO)C(=O)N[C@@H](CCC(N)=O)C(=O)N[C@@H](CCC(=O)O)C(=O)N[C@@H](CC(C)C)C(=O)N[C@@H](Cc1c[nH]cn1)C(=O)N[C@@H](CCCCNC(=O)CNC(=O)CC[C@H](NC(=O)CCCCCCCCCCCCCCCCCCC(=O)O)C(=O)O)C(=O)N[C@@H](CC(C)C)C(=O)N[C@@H](CCC(N)=O)C(=O)N[C@H](C(=O)N[C@@H](Cc1ccc(O)cc1)C(=O)N1CCC[C@H]1C(=O)N[C@@H](CCCNC(=N)N)C(=O)N[C@H](C(=O)N[C@@H](CC(N)=O)C(=O)N[C@H](C(=O)NCC(=O)N[C@@H](CO)C(=O)NCC(=O)N[C@H](C(=O)N1CCC[C@H]1C(N)=O)[C@@H](C)O)[C@@H](C)O)[C@@H](C)O)[C@@H](C)O [Compound 10, Cys-Ser-Asn-Leu-Ser-Thr-Cys-Val-Leu-Gly-Lys-Leu-Ser-Gln-Glu-Leu-His-Lys(Gly-yGlu-eicosanedioic acid)-Leu-Gln-Thr-Tyr-Pro-Arg-Thr-Asn-Thr-Gly-Ser-Gly-Thr-Pro-NH2] | 4.9 pM
3 | CC(C)C[C@H](NC(=O)[C@H](CCCCN)NC(=O)CNC(=O)[C@H](CC(C)C)NC(=O)[C@@H](NC(=O)[C@@H]1CSSC[C@H](N)C(=O)N[C@@H](CO)C(=O)N[C@@H](CC(N)=O)C(=O)N[C@@H](CC(C)C)C(=O)N[C@@H](CO)C(=O)N[C@@H]([C@@H](C)O)C(=O)N1)C(C)C)C(=O)N[C@@H](CO)C(=O)N[C@@H](CCC(N)=O)C(=O)N[C@@H](CCC(=O)O)C(=O)N[C@@H](CC(C)C)C(=O)N[C@@H](Cc1c[nH]cn1)C(=O)N[C@@H](CCCCNC(=O)CNC(=O)CNC(=O)CNC(=O)CNC(=O)CNC(=O)CNC(=O)CC[C@H](NC(=O)CCCCCCCCCCCCCCCCCCC(=O)O)C(=O)O)C(=O)N[C@@H](CC(C)C)C(=O)N[C@@H](CCC(N)=O)C(=O)N[C@H](C(=O)N[C@@H](Cc1ccc(O)cc1)C(=O)N1CCC[C@H]1C(=O)N[C@@H](CCCNC(=N)N)C(=O)N[C@H](C(=O)N[C@@H](CC(N)=O)C(=O)N[C@H](C(=O)NCC(=O)N[C@@H](CO)C(=O)NCC(=O)N[C@H](C(=O)N1CCC[C@H]1C(N)=O)[C@@H](C)O)[C@@H](C)O)[C@@H](C)O)[C@@H](C)O [Compound 15] | 6.5 pM
4 | CC(C)C[C@H](NC(=O)[C@H](CCCCN)NC(=O)CNC(=O)[C@H](CC(C)C)NC(=O)[C@@H](NC(=O)[C@@H]1CSSC[C@H](N)C(=O)N[C@@H](CO)C(=O)N[C@@H](CC(N)=O)C(=O)N[C@@H](CC(C)C)C(=O)N[C@@H](CO)C(=O)N[C@@H]([C@@H](C)O)C(=O)N1)C(C)C)C(=O)N[C@@H](CO)C(=O)N[C@@H](CCC(N)=O)C(=O)N[C@@H](CCC(=O)O)C(=O)N[C@@H](CC(C)C)C(=O)N[C@@H](Cc1c[nH]cn1)C(=O)N[C@@H](CCCCNC(=O)CNC(=O)CNC(=O)CNC(=O)CNC(=O)CNC(=O)CC[C@H](NC(=O)CCCCCCCCCCCCCCCCCCC(=O)O)C(=O)O)C(=O)N[C@@H](CC(C)C)C(=O)N[C@@H](CCC(N)=O)C(=O)N[C@H](C(=O)N[C@@H](Cc1ccc(O)cc1)C(=O)N1CCC[C@H]1C(=O)N[C@@H](CCCNC(=N)N)C(=O)N[C@H](C(=O)N[C@@H](CC(N)=O)C(=O)N[C@H](C(=O)NCC(=O)N[C@@H](CO)C(=O)NCC(=O)N[C@H](C(=O)N1CCC[C@H]1C(N)=O)[C@@H](C)O)[C@@H](C)O)[C@@H](C)O)[C@@H](C)O [Compound 14] | 3.1 pM

Same assay, conditions: relative to Salmon Calcitonin = 100.0; HEK293 CT-R cAMP

Row | Structure (SMILES) | Relative Activity%
5 | CC(C)C[C@H](NC(=O)[C@H](CCCCN)NC(=O)CNC(=O)[C@H](CC(C)C)NC(=O)[C@@H](NC(=O)[C@@H]1CSSC[C@H](N)C(=O)N[C@@H](CO)C(=O)N[C@@H](CC(N)=O)C(=O)N[C@@H](CC(C)C)C(=O)N[C@@H](CO)C(=O)N[C@@H]([C@@H](C)O)C(=O)N1)C(C)C)C(=O)N[C@@H](CO)C(=O)N[C@@H](CCC(N)=O)C(=O)N[C@@H](CCC(=O)O)C(=O)N[C@@H](CC(C)C)C(=O)N[C@@H](Cc1c[nH]cn1)C(=O)N[C@@H](CCCCNC(=O)COCCOCCOCCOCCNC(=O)CC[C@H](NC(=O)CCCCCCCCCCCCCCCCCCC(=O)O)C(=O)O)C(=O)N[C@@H](CC(C)C)C(=O)N[C@@H](CCC(N)=O)C(=O)N[C@H](C(=O)N[C@@H](Cc1ccc(O)cc1)C(=O)N1CCC[C@H]1C(=O)N[C@@H](CCCNC(=N)N)C(=O)N[C@H](C(=O)N[C@@H](CC(N)=O)C(=O)N[C@H](C(=O)NCC(=O)N[C@@H](CO)C(=O)NCC(=O)N[C@H](C(=O)N1CCC[C@H]1C(N)=O)[C@@H](C)O)[C@@H](C)O)[C@@H](C)O)[C@@H](C)O [Compound 4, Cys-Ser-Asn-Leu-Ser-Thr-Cys-Val-Leu-Gly-Lys-Leu-Ser-Gln-Glu-Leu-His-Lys(PEG4CH2CO-yGlu-eicosanedioic acid)-Leu-Gln-Thr-Tyr-Pro-Arg-Thr-Asn-Thr-Gly-Ser-Gly-Thr-Pro-NH2] | 316.7%
6 | CC(C)C[C@H](NC(=O)[C@H](CCCCN)NC(=O)CNC(=O)[C@H](CC(C)C)NC(=O)[C@@H](NC(=O)[C@@H]1CSSC[C@H](N)C(=O)N[C@@H](CO)C(=O)N[C@@H](CC(N)=O)C(=O)N[C@@H](CC(C)C)C(=O)N[C@@H](CO)C(=O)N[C@@H]([C@@H](C)O)C(=O)N1)C(C)C)C(=O)N[C@@H](CO)C(=O)N[C@@H](CCC(N)=O)C(=O)N[C@@H](CCC(=O)O)C(=O)N[C@@H](CC(C)C)C(=O)N[C@@H](Cc1c[nH]cn1)C(=O)N[C@@H](CCCCNC(=O)COCCOCCOCCNC(=O)CC[C@H](NC(=O)CCCCCCCCCCCCCCCCC(=O)O)C(=O)O)C(=O)N[C@@H](CC(C)C)C(=O)N[C@@H](CCC(N)=O)C(=O)N[C@H](C(=O)N[C@@H](Cc1ccc(O)cc1)C(=O)N1CCC[C@H]1C(=O)N[C@@H](CCCNC(=N)N)C(=O)N[C@H](C(=O)N[C@@H](CC(N)=O)C(=O)N[C@H](C(=O)NCC(=O)N[C@@H](CO)C(=O)NCC(=O)N[C@H](C(=O)N1CCC[C@H]1C(N)=O)[C@@H](C)O)[C@@H](C)O)[C@@H](C)O)[C@@H](C)O [Compound 18, Cys-Ser-Asn-Leu-Ser-Thr-Cys-Val-Leu-Gly-Lys-Leu-Ser-Gln-Glu-Leu-His-Lys(PEG3CH2CO-γGlu-octadecanedioic acid)-Leu-Gln-Thr-Tyr-Pr o-Arg-Thr-Asn-Thr-Gly-Ser-Gly-Thr-Pro-NH2] | 271.4%
7 | CC(C)C[C@H](NC(=O)[C@H](CCCCN)NC(=O)CNC(=O)[C@H](CC(C)C)NC(=O)[C@@H](NC(=O)[C@@H]1CSSC[C@H](N)C(=O)N[C@@H](CO)C(=O)N[C@@H](CC(N)=O)C(=O)N[C@@H](CC(C)C)C(=O)N[C@@H](CO)C(=O)N[C@@H]([C@@H](C)O)C(=O)N1)C(C)C)C(=O)N[C@@H](CO)C(=O)N[C@@H](CCC(N)=O)C(=O)N[C@@H](CCC(=O)O)C(=O)N[C@@H](CC(C)C)C(=O)N[C@@H](Cc1c[nH]cn1)C(=O)N[C@@H](CCCCNC(=O)COCCNC(=O)CC[C@H](NC(=O)CCCCCCCCCCCCCCCCCCC(=O)O)C(=O)O)C(=O)N[C@@H](CC(C)C)C(=O)N[C@@H](CCC(N)=O)C(=O)N[C@H](C(=O)N[C@@H](Cc1ccc(O)cc1)C(=O)N1CCC[C@H]1C(=O)N[C@@H](CCCNC(=N)N)C(=O)N[C@H](C(=O)N[C@@H](CC(N)=O)C(=O)N[C@H](C(=O)NCC(=O)N[C@@H](CO)C(=O)NCC(=O)N[C@H](C(=O)N1CCC[C@H]1C(N)=O)[C@@H](C)O)[C@@H](C)O)[C@@H](C)O)[C@@H](C)O [Compound 1, Cys-Ser-Asn-Leu-Ser-Thr-Cys-Val-Leu-Gly-Lys-Leu-Ser-Gln-Glu-Leu-His-Lys(PEG1CH2CO-γGlu-eicosanedioic acid)-Leu-Gln-Thr-Tyr-Pro-Arg-Thr-Asn-Thr-Gly-Ser-Gly-Thr-Pro-NH2] | 206.5%
